“Also recorded” adds a separate entry of the source.

Data set [1] can be described thus: Uterus to body weight ratio in EAE mice. Format: in vivo, mouse. The note with it: therapeutic treatment (postEAE), female EAE mice. The text has this:
Estrogens increase uterine weight by acting primarily through ERα (Hewitt and Korach, 2003).

In another data set the test system is primary OPCs/OLs. The experiment in a line: Primary OPC/OL differentiation and survival (O4, MOG, DAPI staining). The note with it: vs vehicle-treated cells, FIG. 12B. In kind it is cell-based, mouse. From the text: FIG. 12A is representative images of primary OPCs/OLs from wells containing differentiating media in the presence of different analogues. OLs were immunostained with an antigen on the surface of oligodendrocyte progenitors, O4, a marker of mature oligodendrocytes, myelin oligodendrocyte glycoprotein, MOG and co-stained with nuclear stain DAPI.
FIG. 12B and FIG. 12C show quantification of the effects of treatment on the number of MOG+ OLs and the number of total cells (DAPI), respectively. […] There were 3 wells/treatment group. n=3 independent experiments were performed. One-Way ANOVA with Dunnett's multiple comparisons test.
The effect on cell differentiation and survival of estrogen receptor § (ERP) ligand IndCl and analogs were investigated. Some estrogen receptor § (ERP) ligands increase primary mouse oligodendrocyte differentiation (FIGS. 12A-12C).

The test system of a further data set is callosal axons. The experiment in a line: Callosal compound action potential (CAP) recordings in brain slices of EAE mice. The conditions noted are these: vs vehicle; for N1 CAP amplitude / N2 CAP amplitude: therapeutic treatment (postEAE). In kind it is in vivo, mouse. How it is done: Electrophysiology: To assess functional conductivity across the CC, electrophysiological recordings of compound action potentials (CAPs) were measured as previously described (Crawford et al., 2009; Crawford et al., 2010). Coronal brain slices were prepared from adult (3 to 4 month old) C57BL/6 female mice. Briefly, mice were deeply anesthetized under isoflurane and decapitated. The brain was removed and submerged in partially frozen “slushy” solution of slicing buffer containing (in mM): 87 NaCl, 75 sucrose 2.5 KCl, 0.5 CaCl2), 7 MgCl2, 1.25 NaH2PO4, 25 NaHCO3, 10 glucose, 1.3 ascorbic acid, 0.1 kynurenic acid, 2.0 pyruvate, and 3.5 MOPS, bubbled with 5% CO2+95% O2 (Lauderdale et al., 2015). Coronal slices (350 μm) were prepared using a Leica VT 1000S Vibratome (Bannockburn, Ill.) and subsequently incubated for 45 minutes at 35° C. in slicing buffer. Following incubation, slices were allowed to cool to room temperature for 15 minutes then transferred to ACSF […] containing (in mM): 125 NaCl, 2.5 KCl, 2.5 CaCl2), 1.3 MgCl2, 1.25 NaH2PO4, 26.0 NaHCO3, and 15 glucose, oxygenated with 5% CO2+95% O2. Slices were equilibrated in the standard ACSF for a minimum of 15-20 minutes prior to electrophysiological recordings. During electrophysiological recordings, slices were continuously perfused with oxygenated ACSF maintained at a flow rate of 1 mL/min. For recording CAPs, an Axon Digidata 1550 was used with a Multiclamp 700B Amplifier and PClamp 10.4 Software (Molecular Devices, Sunnyvale, Calif.). Continuous recordings for CC conduction experiments were low-pass filtered at 10 kHz and digitized at 200 kHz. All experiments were conducted at room temperature (24-26° C.). To stimulate the CC fiber tract, a concentric bipolar stimulating electrode (FHC Neural microTargeting Worldwide, Bowdoin, Me., USA) was placed approximately 1 mm away across from a recoding electrode (glass micropipette filled with ACSF) with a resistance of 1-3 MO. To elicit CAPs, an episodic stimulation protocol was created consisting of 8 consecutive sweeps, each 12 ms long, with a 5-sec delay between sweeps and an immediate stimulus (0.01 ms duration) after the start of each sweep (Crawford et al., 2009a). Stimulus intensity was adjusted manually using an ISO-Flex stimulator (A.M.P.I). Standardized input-output plots were generated in current clamp mode for each slice by averaging at least 4 consecutive sweeps together to […] the signal-to-noise ratio. […] Electrophysiology data were analyzed using Clampfit 10.4 software (Molecular Devices, Sunnyvale, Calif.) and OriginPro 2016 64 Bit (OriginLab Corporation)
Large white matter tracts, such as the CC, are especially vulnerable to demyelination and axonal damage in MS and EAE (Ozturk et al., 2010; Mangiardi et al., 2011). Compound action potential (CAP) recordings are a valuable technique for assessing demyelination and damage in these areas through their impact on functional conductivity (Crawford et al., 2009; Crawford et al., 2010; Moore et al., 2013).

The mark [2] stands for this setting: Post (therapeutic, postEAE) treatment of EAE mice.

For `Oc1ccc(-n2nc3ccc(O)cc3c2Cl)cc1` [IndCl, chloroindazole], in data set [1], the “uterus to body weight ratio” value is “neither IndCl nor its analogues significantly increased this ratio”. In addition, in the data set with primary OPCs/OLs, the “number of MOG+ OLs” value is listed as “significant increase”. For the same molecule, the “Electrophysiology: N1 amplitude” value in the data set on callosal axons (setting [2]) is “+”. In the data set on callosal axons, the “N1 CAP amplitude” value was “significant improvement; also recorded: improved”.
On to `Oc1ccc(-n2nc3ccc(O)cc3c2Cl)c(Cl)c1` [IndCl-o-Cl, 3-chloro-2-(2-chloro-4-hydroxyphenyl)-2H-indazol-5-ol], for which, in the data set with callosal axons (setting [2]), the “Electrophysiology: N1 amplitude” value is given as “+” and the “Electrophysiology: N2 amplitude” value is listed as “+”. For the same molecule, in the data set with callosal axons, the “N1 CAP amplitude” value is reported as “improved” and the “N2 CAP amplitude” value is “increased”. For the same molecule, the “N2 CAP amplitude” value in the data set with callosal axons (listed as Ind-o-Cl) is recorded as “small but significant increase”.
`Cc1cc(O)ccc1-n1nc2ccc(O)cc2c1Cl` [IndCl-o-Me, 3-chloro-2-(4-hydroxy-2-methylphenyl)-2H-indazol-5-ol]: the “Electrophysiology: N1 amplitude” value in the data set with callosal axons (setting [2]) is recorded as “+”. In the data set on callosal axons, the “N1 CAP amplitude” value was “improved”.
